Reference: patent US20260327216A1, “SUBSTITUTED OXAZOLONE COMPOUND FOR DECREASING LEVELS OF IKZF I-4 PROTEINS” (BRISTOL-MYERS SQUIBB COMPANY, priority 2023, published 2026)

Legend:
Format in all cases: cell-based
IKZF4 Eos = molecular target: T1, IKZF4 Eos (Homo sapiens, UniProt Q96SW2+Q9H2S9); experiment: Human Regulatory T Cell Reprogramming Assay, IKZF4; conditions: 12-13 days; for IKZF4 Eos max % deg. observed / Dmax: human CD4+CD127lowCD25+ Treg cells, stimulated, 100% = complete degradation; for Dmax: Regulatory T cell, human, read-out: IKZF4 Eos max % deg. observed
T1 construct: endogenous in cells; host or cells: FACS-sorted human CD4+CD127lowCD25+ Treg cells from healthy leukopaks
T1 sequence (Q9H2S9 whole entry): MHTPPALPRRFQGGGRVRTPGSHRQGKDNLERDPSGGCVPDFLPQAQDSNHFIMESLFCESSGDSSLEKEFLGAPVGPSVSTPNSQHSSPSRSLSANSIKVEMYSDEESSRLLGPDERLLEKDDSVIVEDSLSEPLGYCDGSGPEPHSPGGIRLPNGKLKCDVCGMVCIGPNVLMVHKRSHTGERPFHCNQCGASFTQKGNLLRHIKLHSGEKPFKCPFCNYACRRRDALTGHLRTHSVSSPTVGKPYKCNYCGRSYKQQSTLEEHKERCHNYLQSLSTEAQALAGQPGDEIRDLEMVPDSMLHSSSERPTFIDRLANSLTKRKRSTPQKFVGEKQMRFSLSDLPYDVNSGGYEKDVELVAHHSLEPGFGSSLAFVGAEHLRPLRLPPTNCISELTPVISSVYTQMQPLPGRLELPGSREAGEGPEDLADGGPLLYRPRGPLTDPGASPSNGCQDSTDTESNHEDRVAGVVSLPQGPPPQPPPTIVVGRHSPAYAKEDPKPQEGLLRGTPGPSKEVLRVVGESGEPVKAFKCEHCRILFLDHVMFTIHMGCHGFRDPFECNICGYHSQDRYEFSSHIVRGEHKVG
T1 sequence (Q96SW2 whole entry): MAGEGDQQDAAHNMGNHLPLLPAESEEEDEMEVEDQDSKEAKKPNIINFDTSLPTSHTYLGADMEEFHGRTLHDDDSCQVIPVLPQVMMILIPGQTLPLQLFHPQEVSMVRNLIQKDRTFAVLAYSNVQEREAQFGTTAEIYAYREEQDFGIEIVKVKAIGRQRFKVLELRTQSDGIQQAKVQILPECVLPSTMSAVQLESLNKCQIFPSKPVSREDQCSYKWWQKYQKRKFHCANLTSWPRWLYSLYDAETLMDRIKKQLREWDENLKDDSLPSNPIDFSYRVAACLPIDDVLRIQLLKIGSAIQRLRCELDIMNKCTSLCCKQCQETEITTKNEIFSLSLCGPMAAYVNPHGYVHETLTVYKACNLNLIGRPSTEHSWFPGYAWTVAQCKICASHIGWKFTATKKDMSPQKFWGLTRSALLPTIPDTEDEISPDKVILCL
T1 sequence (Q16531 whole entry partner): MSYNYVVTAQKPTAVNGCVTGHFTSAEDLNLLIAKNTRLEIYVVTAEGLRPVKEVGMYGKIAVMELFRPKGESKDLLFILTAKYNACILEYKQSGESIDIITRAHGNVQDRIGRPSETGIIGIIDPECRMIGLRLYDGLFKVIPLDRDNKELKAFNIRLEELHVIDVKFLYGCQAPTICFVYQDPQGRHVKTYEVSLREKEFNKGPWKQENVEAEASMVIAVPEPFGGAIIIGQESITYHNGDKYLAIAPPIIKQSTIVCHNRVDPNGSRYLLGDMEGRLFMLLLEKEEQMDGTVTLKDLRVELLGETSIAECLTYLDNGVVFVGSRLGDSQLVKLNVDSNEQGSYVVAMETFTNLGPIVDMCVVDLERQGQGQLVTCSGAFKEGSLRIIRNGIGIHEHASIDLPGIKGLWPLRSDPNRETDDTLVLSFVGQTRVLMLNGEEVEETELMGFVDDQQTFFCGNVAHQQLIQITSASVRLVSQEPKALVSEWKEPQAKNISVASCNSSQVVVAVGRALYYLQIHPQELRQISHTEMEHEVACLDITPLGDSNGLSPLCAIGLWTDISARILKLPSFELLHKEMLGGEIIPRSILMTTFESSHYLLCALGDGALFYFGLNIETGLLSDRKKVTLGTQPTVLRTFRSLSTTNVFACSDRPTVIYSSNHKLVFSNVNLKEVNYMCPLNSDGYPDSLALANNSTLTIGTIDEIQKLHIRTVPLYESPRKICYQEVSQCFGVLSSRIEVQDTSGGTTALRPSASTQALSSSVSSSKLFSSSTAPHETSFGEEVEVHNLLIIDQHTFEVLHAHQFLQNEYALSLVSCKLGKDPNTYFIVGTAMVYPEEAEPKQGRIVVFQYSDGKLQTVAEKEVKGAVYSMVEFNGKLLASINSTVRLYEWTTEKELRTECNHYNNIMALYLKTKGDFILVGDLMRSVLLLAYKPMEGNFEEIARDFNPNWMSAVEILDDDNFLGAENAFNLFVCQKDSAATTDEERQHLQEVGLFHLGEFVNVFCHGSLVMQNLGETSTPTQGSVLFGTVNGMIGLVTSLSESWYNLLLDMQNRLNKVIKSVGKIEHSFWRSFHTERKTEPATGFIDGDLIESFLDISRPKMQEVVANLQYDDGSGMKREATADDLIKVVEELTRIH
Method: (§1) Human CD4^+ T cells were isolated from fresh healthy leukopaks (Stemcell Technologies) using the RosetteSep Human CD4^+ T cell enrichment cocktail (Stemcell Technologies) and Ficoll density gradient centrifugation. Leukopaks were diluted with an equal volume of phosphate-buffered saline (PBS [Gibco]) supplemented with 2% fetal bovine serum (FBS, VWR Lifescience) and incubated with RosetteSep Human CD4^+ T cell enrichment cocktail for 20 minutes before layering on Ficoll-Paque Plus solution (GE Health Care). The cell-rich interface layer was harvested and washed twice with PBS supplemented with 2% FBS. Regulatory T cells were then isolated manually using the EasySep Human CD4^+CD127^lowCD25^+ Regulatory T cell isolation kit (Stemcell Technologies) according to the manufacturer's instructions. Cells were rested overnight in Roswell Park Memorial Institute (RPMI) 1640 media (Gibco) supplemented with 10% FBS, Pen/Strep (Gibco), MEM-NEAA (Gibco), and sodium pyruvate (Gibco) in a humidified incubator (37° C., 5% CO2). Cells were then stained for CD4 (clone: RPA-T4, Biolegend), CD25 (clone: 2A3, BD Biosciences), and CD127 (clone: hIL-7R-M21, BD Biosciences). CD4^+CD127^lowCD25^+ cells were sorted on a BD FACS Aria Fusion sorter to a purity of 95% or greater. Sorted cells were immediately used or cryopreserved for downstream assays.
(§2) Fresh or cryopreserved FACS-sorted CD4^+CD127^lowCD25^+ Treg cells were cultured at 25,000-50,000 cells/well of 96-well round bottom plates in RPMI 1640 media (Gibco) supplemented with 10% FBS, Pen/Strep (Gibco), MEM-NEAA (Gibco), and sodium pyruvate (Gibco). Cells were stimulated with Treg Xpander beads (Thermo Fisher) at cells-to-beads ratio of 1:4 in the presence of 500 U/mL recombinant human IL-2 (Proleukin). Compounds were added at titrated doses and cells were incubated at 37°C., 5% CO2 for 12-13 days. Recombinant human IL-2 and compound were replenished every 2-3 days during the entire culture duration. On day 12 or 13, cells were restimulated with phorbol 12-myristate 13-acetate (PMA) and ionomycin in the presence of the protein transport inhibitors brefeldin A and monensin (eBioscience Cell Stimulation Cocktail plus protein transport inhibitors, 500×, Catalog number 00-4975-93) before proceeding with flow cytometry staining and analysis.
(§3) For flow cytometry staining, cells were washed twice with flow cytometry staining buffer (Thermo Fisher) and incubated in Human Tru-stain Fc block (Biolegend) for 10 minutes before adding eFluor780 viability dye (Thermo Fisher) and surface marker antibody cocktail for 30 minutes at 4° C. Cells were then fixed and permeabilized by incubation with FoxP3 transcription factor staining buffer (Thermo Fisher) for 30 minutes at 4° C. as per the kit manufacturer's instructions. Cells were washed twice with the Perm/Wash buffer supplied in the kit as per the manufacturer's instructions and incubated overnight at 4° C. with an intracellular antibody cocktail comprised of antibodies specific for the transcription factors shown in Table C. Cells were washed twice with Perm/Wash buffer and resuspended in flow cytometry staining buffer (Thermo Fisher) prior to acquisition. Sample acquisition and analysis was performed using a BD LSRFortessa (BD Biosciences) flow cytometer. Single stain controls for each fluorochrome were prepared using UltraComp eBead Compensation Beads (Thermo Fisher). Data were analyzed using FlowJo version 10 and GraphPad Prism Software.
(§4) Table C-1 lists the maximum observed degradation of the IKZF2 protein and IKZF4 protein as measured in the Human Regulatory T Cell Reprogramming assay. The results in Table C-1 were rounded to two digits. In the Human Regulatory T Cell Reprogramming assay, a value of 100% indicated no detectable protein remaining or complete degradation of the protein; and a value of 0% indicated no detectable degradation of the protein by the test compound.

IKZF1 Ikaros = IKZF1 Ikaros (Homo sapiens, UniProt Q13422+Q96SW2); experiment: Jurkat Cellular Degradation Assay, IKZF1; design: endogenous in cells; conditions: Jurkat cells, 72 h; for Dmax: human, 100% = complete degradation, 0% = no detectable degradation, read-out: IKZF1 Ikaros max % deg. observed
Sequence of IKZF1 Ikaros (Q13422 whole entry): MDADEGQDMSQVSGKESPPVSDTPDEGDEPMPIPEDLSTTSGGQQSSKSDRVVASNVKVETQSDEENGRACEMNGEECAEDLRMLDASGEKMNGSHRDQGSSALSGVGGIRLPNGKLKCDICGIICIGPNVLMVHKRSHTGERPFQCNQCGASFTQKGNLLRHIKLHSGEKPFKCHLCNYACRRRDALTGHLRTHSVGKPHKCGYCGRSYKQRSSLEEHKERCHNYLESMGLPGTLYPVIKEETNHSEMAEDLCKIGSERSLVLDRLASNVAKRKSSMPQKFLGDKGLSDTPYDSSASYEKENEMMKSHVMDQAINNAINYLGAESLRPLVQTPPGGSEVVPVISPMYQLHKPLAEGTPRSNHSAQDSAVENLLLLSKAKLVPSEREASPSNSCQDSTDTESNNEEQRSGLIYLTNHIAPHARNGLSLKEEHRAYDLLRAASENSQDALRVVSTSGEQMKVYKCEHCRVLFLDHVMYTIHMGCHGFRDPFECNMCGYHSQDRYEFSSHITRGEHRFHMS
Sequence of IKZF1 Ikaros (Q96SW2 whole entry): as the sequence (Q96SW2 whole entry) above
Sequence of IKZF1 Ikaros (Q16531 whole entry partner): as the sequence (Q16531 whole entry partner) above
Method: Jurkat cells were plated at 80,000 cells/well in 40 μL RPMI+10% FBS in a 384-well cell culture plate prior to using acoustic dispensing technology for adding a compound of interest. Cell cultures were incubated for 72 h at 37° C. and 5% CO2. In order to facilitate analysis, cell cultures were spun down at 200 rpm for 5 min and the supernatant was discarded. After shaking the plate to dislodge the cell pellet, cells were resuspended in 50 μL of Fixation Buffer (eBioscience FoxP3 buffer set 00-5523-00) for 60 min at room temperature. After centrifuging and discarding the supernatant, cells were permeabilized with 50 μL of Permeabilization buffer (eBioscience FoxP3 buffer set 00-5523-00) for 10 min at room temperature. Following permeabilization, cells were spun down and the supernatant was replaced with 20 μL fluorescently labelled antibodies against Helios, Ikaros and Aiolos or corresponding Isotype controls in 1× Permeabilization buffer (Ikaros-Alexa488 [Biolegend, Cat #368408, 1:50], Helios-PE [CST, Cat #29360, 1:50], Aiolos-Alexa647 [Biolegend, Cat #371106 Biolegend, 1:25]) and staining reactions were incubated for 1 h at room temperature while protected from light. Subsequently, 30 μL of 1× Permeabilization buffer was added prior to centrifuging the cells and discarding the supernatant. Stained cells were resuspended in 25 μL of flow cytometry staining buffer [PBS+0.2% bovine serum albumin (BSA)] and analyzed using an Intellicyt Ique Plus flow cytometer.
Table A-1 lists the maximum observed degradation of the IKZF1 protein, IKZF2 protein, and IKZF3 protein as measured in the Jurkat Cellular Degradation assay. The results in Table A-1 were rounded to two digits. In the Jurkat Cellular Degradation assay, a value of 100% indicated no detectable protein remaining or complete degradation of the protein; and a value of 0% indicated no detectable degradation of the protein by the test compound.

IKZF2 Helios = IKZF2 Helios (Homo sapiens, UniProt Q96SW2+Q9UKS7); experiment: Human Regulatory T Cell Reprogramming Assay, IKZF2; design: endogenous in cells; host or cells: FACS-sorted human CD4+CD127lowCD25+ Treg cells from healthy leukopaks; conditions: 12-13 days; for IKZF2 Helios max % deg. observed / Dmax: human CD4+CD127lowCD25+ Treg cells, stimulated, 100% = complete degradation; for Dmax: Regulatory T cell, human, read-out: IKZF2 Helios max % deg. observed
Sequence of IKZF2 Helios (Q9UKS7 whole entry): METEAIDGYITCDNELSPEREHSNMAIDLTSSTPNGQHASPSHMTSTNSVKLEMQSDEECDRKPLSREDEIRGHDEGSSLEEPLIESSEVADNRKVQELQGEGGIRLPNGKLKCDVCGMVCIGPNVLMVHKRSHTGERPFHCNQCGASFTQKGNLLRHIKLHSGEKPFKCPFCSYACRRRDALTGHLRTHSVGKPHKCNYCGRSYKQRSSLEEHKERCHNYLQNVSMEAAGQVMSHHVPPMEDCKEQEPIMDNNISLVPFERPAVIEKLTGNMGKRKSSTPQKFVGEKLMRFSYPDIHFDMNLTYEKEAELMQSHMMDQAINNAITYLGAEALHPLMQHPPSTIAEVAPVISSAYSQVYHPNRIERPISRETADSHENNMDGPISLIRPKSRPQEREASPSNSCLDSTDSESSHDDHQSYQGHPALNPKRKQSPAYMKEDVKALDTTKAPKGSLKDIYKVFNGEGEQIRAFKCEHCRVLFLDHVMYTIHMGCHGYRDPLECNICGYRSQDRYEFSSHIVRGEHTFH
Sequence of IKZF2 Helios (Q96SW2 whole entry): as the sequence (Q96SW2 whole entry) above
Sequence of IKZF2 Helios (Q16531 whole entry partner): as the sequence (Q16531 whole entry partner) above
Method: as §1, §2, §3, §4

[1] = human Treg cells, concentration reducing protein level by 50% vs DMSO

| IKZF4 Eos max % deg. observed (IKZF4 Eos) | Dmax (IKZF1 Ikaros) | IKZF2 Helios max % deg. observed (IKZF2 Helios) | Dmax (IKZF4 Eos) | Dmax (IKZF2 Helios) | DC50 (IKZF4 Eos; [1]) | DC50 (IKZF1 Ikaros; concentration reducing protein level by 50% vs DMSO) | DC50 (IKZF2 Helios; [1]) | SMILES |
| --- | --- | --- | --- | --- | --- | --- | --- | --- |
| 0% | 57% | 1% | – | – | – | – | – | O=C1CCC(n2cc(-c3ccccc3)oc2=O)C(=O)N1 (stereo not shown) [Comparative Compound A, 3-(2-oxo-5-phenyloxazol-3(2H)-yl)piperidine-2,6-dione] |
| 11% | 17% | 6% | ≤ 11% | ≤ 6% | – | – | – | O=C1CCC(n2cc(-c3ccc(Br)cc3F)oc2=O)C(=O)N1 (stereo not shown) [Comparative Compound B, 3-(5-(4-bromo-2-fluorophenyl)-2-oxooxazol-3(2H)-yl)piperidine-2,6-dione] |
| 68-71% | 70% | 86-92% | 68 to 71% | 86 to 92% | 0.45 nM | 749 nM | 1.1 to 1.4 nM | Cc1cc(-c2ccc(-c3cn(C4CCC(=O)NC4=O)c(=O)o3)c(F)c2)nc(N)c1OC(F)F (stereo not shown) [Example 1, 3-(5-(4-(6-Amino-5-(difluoromethoxy)-4-methylpyridin-2-yl)-2-fluorophenyl)-2-oxooxazol-3(2H)-yl)piperidine-2,6-dione] |
